This note sets out measurements from patent US8871788B2, “Substituted N-alkyl and N-acyl tetrahydro-isoquinoline derivatives, preparation and therapeutic use thereof” (Sanofi, priority 2010, dated 2014).

By Ki is commonly meant a dissociation constant, usually derived from enzyme kinetics or from competition with a known ligand.

Molecules are shown by their SMILES.

The test system of one experiment is Rats. As to the kind of experiment: Forced-Swimming Test in Rats. The settings on record: p.o. twice, 0.1, 1, and 10 mg/kg, 6-min test. Type of experiment: in vivo, rat. As to the method:
This example further illustrates the study of efficacy of the compounds of this invention as antidepressive agents in animal models.
The procedure was a modification of that described by Porsolt et al. (1977) Depression: a new animal model sensitive to antidepressant treatments. Nature 266:730-2. Rats were placed in individual glass cylinder (40 cm height, 18 cm diameter) containing water (22-25° C.) to a height of 15 cm. Two swimming sessions were conducted (a 15-min training session followed 24 h later by a 6-min test). After each swimming session, rats were placed under a heating lamp to avoid hypothermia. The duration of immobility was measured during the 6-min test. Example 1 of this invention was administered p.o. twice (15 min pre-test followed by first injection 24 h prior to […]) at three different dosages of 0.1, 1, and 10 mg/kg. The compound is active at all of these three dosage levels.

In experiment [1] the target is T1, rhesus (Macacca Mulatta) H3 receptor (Macaca mulatta, UniProt Q865E1).
T1 construct: 445 amino acid H3 receptor; expressed in transfected cells; host or cells: Flp-In T-REx 293 Cell Line (Invitrogen), pcDNA5/FRT/TO, induced with tetracycline
T1 sequence (Q865E1 1-445): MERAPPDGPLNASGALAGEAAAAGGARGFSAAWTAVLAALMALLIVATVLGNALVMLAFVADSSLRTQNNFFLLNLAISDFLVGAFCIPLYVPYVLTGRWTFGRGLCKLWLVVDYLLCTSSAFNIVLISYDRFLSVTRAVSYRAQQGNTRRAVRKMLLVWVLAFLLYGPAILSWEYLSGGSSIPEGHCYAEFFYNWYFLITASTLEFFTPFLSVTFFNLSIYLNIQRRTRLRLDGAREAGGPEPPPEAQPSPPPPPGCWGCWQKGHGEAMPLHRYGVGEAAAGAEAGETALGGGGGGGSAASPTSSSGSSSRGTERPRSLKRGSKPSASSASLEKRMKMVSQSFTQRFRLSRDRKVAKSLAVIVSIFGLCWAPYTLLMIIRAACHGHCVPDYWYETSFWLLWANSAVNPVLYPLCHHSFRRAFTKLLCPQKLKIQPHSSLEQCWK
As to the kind of experiment: Rhesus H3 [3H]-Methylhistamine radioligand binding assay (SPA). To be noted: [3H]-Methylhistamine 2 nM, rhesus H3 membranes, Cheng-Prusoff. Details: species or system rhesus monkey (Macacca Mulatta). As to the method:
(§1) Rhesus H3 membranes were prepared from the Flp-In T-REx 293 Cell Line (Invitrogen) stably transfected with pcDNA5/FRT/TO (Invitrogen) containing the rhesus monkey (Macacca Mulatta) 445 amino acid H3 receptor. (Genbank #AY231164). Stably transfected cultures were amplified in tissue culture flasks by standard tissue culture methods and induced to express rhesus H3 by exposure to 500 ng/ml tetracycline (Cellgro) for 24 hours. After induction, cells were dissociated from flasks utilizing Cell Stripper (Cellgro). Cells were centrifuged (1K×g, 5 min) and pellet frozen in an ethanol-dry ice bath to disrupt cell membranes. Frozen cell pellet was re-suspended in 5 mM HEPES (pH 7.4, Invitrogen) at 10 ml/1000 cm2 of harvested cells. The cell suspension was drawn through an 18 gauge needle (2-3×) followed by a 23 gauge needle (2-3×) to further disrupt cell membranes. The cell suspension was centrifuged (40K×g, 30 min). Cell membrane pellet was re-suspended in 5 mM HEPES (pH 7.4, Invitrogen) at a final protein concentration of 10 mg/ml. Rhesus H3 membranes were stored under liquid nitrogen prior to use in [3H]-Methylhistamine and GTPγS radioligand binding assays.
(§2) Rhesus H3 radioligand binding assay was performed using rhesus H3 receptor membranes (prepared as described above), [3H]-Methylhistamine (Perkin Elmer) and WGA SPA beads (wheat germ agglutinin scintillation proximity assay) beads (Amersham). The assay was performed in 96-well Opti-Plates (Packard). Each reaction contained 50 μl rhesus H3 membranes (20-30 μg total protein), 50 μl WGA SPA beads (0.1 μg) and 50 μl of 83Ci/mmol [^3H]-Methylhistamine (final concentration 2 nM) and 50 μl of tested compound. The compounds of this invention and/or vehicle were diluted with binding buffer from 10 mM DMSO stocks. Assay plates were sealed with TopSeal (Perkin Elmer) and mixed on shaker (25° C., 1 hour). Assay plates were read on TopCount scintillation counter (Packard). Results were analyzed by Hill transformation and Ki values were determined by Cheng-Prusoff equation. Similar procedure was employed to determine the binding data for rat.

Another experiment has as its target Rat H3 (Rattus norvegicus, UniProt Q9QYN8). In words: Rat H3 radioligand binding (similar procedure). To be noted: rat H3, similar procedure to rhesus binding. As to the method:
as §2

The target in a further experiment is T2, rhesus H3 (Macaca mulatta, UniProt Q865E1).
T2 construct: 445 amino acid H3 receptor; expressed in transfected cells; host or cells: Flp-In T-REx 293 Cell Line (Invitrogen), pcDNA5/FRT/TO, induced with tetracycline
T2 sequence (Q865E1 1-445): as above
As to the kind of experiment: GTPγS radioligand binding assay, rhesus H3 constitutive functional activity in cell membranes. Format: biochemical, rhesus monkey (Macacca Mulatta). To be noted: relative to basal levels. On the procedure: as §1

Chain of Rat H3 (Q9QYN8 whole entry): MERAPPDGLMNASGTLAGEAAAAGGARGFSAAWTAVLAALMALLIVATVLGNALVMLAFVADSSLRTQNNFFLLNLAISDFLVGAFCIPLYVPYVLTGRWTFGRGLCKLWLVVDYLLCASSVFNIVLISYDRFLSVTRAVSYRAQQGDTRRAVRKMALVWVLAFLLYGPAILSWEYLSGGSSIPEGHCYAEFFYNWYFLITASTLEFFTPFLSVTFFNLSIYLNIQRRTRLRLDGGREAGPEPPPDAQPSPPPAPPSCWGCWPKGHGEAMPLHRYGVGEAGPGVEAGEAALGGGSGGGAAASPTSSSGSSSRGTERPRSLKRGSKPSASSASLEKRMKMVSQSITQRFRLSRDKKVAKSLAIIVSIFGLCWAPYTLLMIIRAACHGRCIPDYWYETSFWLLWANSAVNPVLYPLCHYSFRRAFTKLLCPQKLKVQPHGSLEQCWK

For the compound `C[C@H]1CCCN1[C@H]1CCN(c2ccc3c(c2)CCN(C2CCOCC2)C3=O)C1` [Example 1, 6-((2S,3′S)-2-Methyl-[1,3′]bipyrrolidinyl-1′-yl)-2-(tetrahydro-pyran-4-yl)-3,4-dihydro-2H-isoquinolin-1-one], in the experiment on Rats, the “activity in forced-swimming test (duration of immobility)” value is given as “active”. Moreover, the inhibition constant Ki in experiment [1] came to 1.2 nM; at Rat H3, 3.6 nM.
With `C[C@H]1CCCN1[C@H]1CCN(c2ccc3c(c2)CCN(C(=O)C2CCCCC2)C3)C1` [Example 18, Cyclohexyl-[6-((2S,3′S)-2-methyl-[1,3′]bipyrrolidinyl-1′-yl)-3,4-dihydro-1H-isoquinolin-2-yl]-methanone], the “GTPγS-35 ASSAY % Inverse Agonism” value at rhesus H3 is −10.7%. For the same compound, the Ki in experiment [1] amounted to 0.094 nM; on Rat H3, 0.24 nM.
As to `C[C@H]1CCCN1[C@H]1CCN(c2ccc3c(c2)CCN(C(=O)c2ccccc2)C3)C1` [Example 16, [6-((2S,3′S)-2-Methyl-[1,3′]bipyrrolidinyl-1′-yl)-3,4-dihydro-1H-isoquinolin-2-yl]-phenyl-methanone], the “GTPγS-35 ASSAY % Inverse Agonism” value at rhesus H3 is −18.9%. Besides, the Ki in experiment [1] was 0.29 nM; at Rat H3 it was 7.3 nM.
Take `C[C@H]1CCCN1[C@H]1CCN(c2ccc3c(c2)CCN(C(=O)Nc2ccc(-c4ccccc4)cc2)C3)C1` [Example 26, 6-((2S,3′S)-2-Methyl-[1,3′]bipyrrolidinyl-1′-yl)-3,4-dihydro-1H-isoquinoline-2-carboxylic acid biphenyl-4-ylamide]: at rhesus H3, the “GTPγS-35 ASSAY % Inverse Agonism” value is −16.1%. Further, the Ki in experiment [1] was 74 nM; on Rat H3, 330 nM.
As for `CCOC(=O)N1CCc2cc(N3CC[C@H](N4CCC[C@@H]4C)C3)ccc2C1` [Example 25, 6-((2S,3′S)-2-Methyl-[1,3′]bipyrrolidinyl-1′-yl)-3,4-dihydro-1H-isoquinoline-2-carboxylic acid ethyl ester], the “GTPγS-35 ASSAY % Inverse Agonism” value on rhesus H3 is given as −0.5%. Also, the Ki worked out at 1.2 nM in experiment [1] and 75 nM at Rat H3.
Consider `COc1ccc(C(=O)N2CCc3cc(N4CC[C@H](N5CCC[C@@H]5C)C4)ccc3C2)cc1` [Example 12, (4-Methoxy-phenyl)-[6-((2S,3′S)-2-methyl-[1,3′]bipyrrolidinyl-1′-yl)-3,4-dihydro-1H-isoquinolin-2-yl]-methanone], for which, on rhesus H3, the “GTPγS-35 ASSAY % Inverse Agonism” value was −26.1%. Also, the results for the Ki (in experiment [1]; on Rat H3) were 2.8 nM and 6.2 nM, respectively.
For `C[C@H]1CCCN1[C@H]1CCN(c2ccc3c(c2)CCN(C(=O)c2ccc(F)cc2)C3)C1` [Example 17, (4-Fluoro-phenyl)-[6-((2S,3′S)-2-methyl-[1,3′]bipyrrolidinyl-1′-yl)-3,4-dihydro-1H-isoquinolin-2-yl]-methanone], the “GTPγS-35 ASSAY % Inverse Agonism” value on rhesus H3 was −10.4%. Further, the figures for the Ki (in experiment [1]; at Rat H3) were 0.19 nM and 3.1 nM, respectively.
On to `C[C@H]1CCCN1[C@H]1CCN(c2ccc3c(c2)CCN(C2CCOCC2)C3)C1.O=C(O)C(F)(F)F` [Example 4, 6-((2S,3′S)-2-Methyl-[1,3′]bipyrrolidinyl-1′-yl)-2-(tetrahydro-pyran-4-yl)-1,2,3,4-tetrahydro-isoquinoline hydrochloride], for which the “GTPγS-35 ASSAY % Inverse Agonism” value on rhesus H3 is −28.0%. In addition, the Ki in experiment [1] was determined as 0.11 nM; on Rat H3, 0.05 nM.
On to `C[C@H]1CCCN1[C@H]1CCN(c2ccc3c(c2)CCN(Cc2ccc(F)cc2)C3)C1` [Example 9, 2-(4-Fluoro-benzyl)-6-((2S,3′S)-2-methyl-[1,3′]bipyrrolidinyl-1′-yl)-1,2,3,4-tetrahydro-isoquinoline], for which the “GTPγS-35 ASSAY % Inverse Agonism” value at rhesus H3 is reported as −6.2%. The Ki in experiment [1] amounted to 0.37 nM; at Rat H3 it was 0.19 nM.
